Experimental data taken from patent US6905861B2, “D-aminoacylases, method for producing the same, and method for producing D-amino acids using the same” (Daicel Chemical Industries, Ltd., priority 1998, dated 2005).

How the values were obtained:
[1] = tested on: D-aminoacylase; assay: Effects of various metal salts and reagents on residual enzyme activity; assay type: biochemical, Hypomyces mycophilus IFO 6785; settings: for Relative activity (%): pH 9.5; for effect on the enzyme (in words): summary of Tables 6 and 7
[2] = tested on: D-aminoacylase; assay: Substrate specificity of purified D-aminoacylase (TNBS method); assay type: biochemical, Hypomyces mycophilus IFO 6785; settings: for percentage of the specific activity compared with that for N-acetyl-D-methionine taken as 100%, L-enantiomer / percentage of the specific activity compared with that for N-acetyl-D-methionine taken as 100%, D-enantiomer: 20 mM substrate, 50 mM Tris-HCl pH 7.5, 30° C., 20 min; for activity of the enzyme for the substrate (in words): summary of Table 5
Method: The enzyme activity was assayed by determining the amount of amino acid produced using the TNBS method and the HPLC method. In the TMBS method, 100 mM Na2B4O7 (0.5 ml) was added to a sample solution containing amino acid (0.5 ml), 20 μl of 110 mM TNBS (trinitrobenzenesulfonic acid) was then added, and the resulting mixture was quickly stirred. After 5 min, 100 mM NaH2PO4 containing 1.5 mM Na2SO3 (2 ml) was added to the reaction mixture to terminate the color reaction, and the absorbance at 420 nm was measured. HPLC was performed by subjecting a sample solution containing amino acid to high-performance liquid chromatography using an ODS column (column, Wakosil II 5C18 (4.6 dia.×250 mm) (Wako Pure Chemical); eluent, CH3CN/50 mM KH2PO4. H3PO4 (pH 2.5)=2:8; detection, A280 nm; and flow rate, 1.0 ml/min). The retention times were 3.5 min for D-tryptophan and 9.8 min for N-acetyl-D-tryptophan. Using D-tryptophan as the assay standard, one unit (or U) of the enzyme was defined as the amount of the enzyme required to produce 1 μmol of D-tryptophan at 30° C. for 1 min.
Substrate specificity of the enzyme was expressed as the percentage of the specific activity compared with that for N-acetyl-D-methionine taken as 100%. N-chloroacetyl-D-phenylalanine, N-acetyl-D-valine, N-acetyl-D-phenylalanine, N-acetyl-D-tryptophan, N-acetyl-D-leucine, N-acetyl-L-valine, N-acetyl-L-phenylalanine, N-acetyl-L-tryptophan, and N-acetyl-L-leucine substrates were used for the comparison. The enzyme reaction was performed in 50 mM Tris-HCl (pH 7.5) containing 1 µl of the enzyme solution and 20 mM of each substrate (total volume 1.0 ml) at 30° C. for 20 min, and terminated by adding 0.5 ml of a TCA reaction terminating solution according to Tsai et al. (consisting of 110 mM trichloroacetic acid, 220 mM sodium acetate, and 330 mM acetic acid). The enzyme activity was assayed by the TNBS method as described in Example 4(2).

[3] = tested on: D-aminoacylase (crude enzyme) of Menisporopsis novaezelandiae IFO 9179; assay: Crude enzyme activity for each N-Ac-D-amino acid substrate; assay type: biochemical; settings: Menisporopsis novaezelandiae IFO 9179 crude enzyme; 20 mM substrate, 1 mM CoCl2, 50 mM phosphate buffer pH 7.0
Method: (§1) Auricularia auriculajudae IFO 5949, Pythium aphanidermaatum IFO 7030, and Menisporopsis novaezelandiae IFO 9179 were each inoculated into sterilized media (100 ml each) (Czapek Dox Broth for IFO 5949, YM1 medium for IFO 7030, and POTATO DEXTROSE BROTH for IFO 9179) in 500-ml Erlenmeyer flasks. The fungi were cultured on a rotary shaker at 210 rpm at 24° C. for 7 days and collected by centrifugation using a […] centrifuge with a RPR10-2 rotor at 8,000 rpm (12,500×g) for 20 min. […] Disrupted cells thus obtained were centrifuged using a […] centrifuge with a RPR20-2 rotor at 17,500 rpm (38,000×g) for 30 min at 4° C. to obtain the supernatant as the crude enzyme. […] Figures in the table denote the amount (mM) of D-amino acids produced from the corresponding N-acetyl-D-amino acids. The D-aminoacylase activity was detected in all the strains tested, producing D-amino acid from the corresponding N-acetyl-D-amino acid.

[4] = tested on: D-aminoacylase (crude enzyme) of Auricularia auriculajudae IFO 5949; assay: as above; assay type: biochemical; settings: Auricularia auriculajudae IFO 5949 crude enzyme; 20 mM substrate, 1 mM CoCl2, 50 mM phosphate buffer pH 7.0
Method: as §1

[5] = metal ion 1 mM, kept at 40° C. for 30 min, residual activity, no addition = 100
[6] = compound 1 mM, kept at 40° C. for 30 min, residual activity, no addition = 100

For `[Cl-].[Cl-].[Mg+2]` [MgCl2], the “Relative activity (%)” value [1] was 98.0%.

In the case of `[Cl][Mn][Cl]` [MnCl2], the “Relative activity (%)” value [1, 5] is reported as 100%.

For `CC(=O)N[C@@H](CC(C)C)C(=O)O` [N-acetyl-L-leucine], the “percentage of the specific activity compared with that for N-acetyl-D-methionine taken as 100%, L-enantiomer” value (shortened to “percentage … as 100%, L-enantiomer”) [2] was 0% and the “activity of the enzyme for the substrate (in words)” value (from here on “activity of the enzyme”) [2] was “inactive”.

In the case of `CC(=O)N[C@H](CC(N)=O)C(=O)O` [N-acetyl-D-asparagine], the “percentage of the specific activity compared with that for N-acetyl-D-methionine taken as 100%, D-enantiomer” value (shortened to “percentage … as 100%, D-enantiomer”) [2] is reported as 0%.

In the case of `O=C(N[C@H](Cc1ccccc1)C(=O)O)c1ccccc1` [N-benzoyl-D-phenylalanine], the “percentage … as 100%, D-enantiomer” value [2] is reported as 0%.

In the case of `NO` [Hydroxylamine], the “Relative activity (%)” value [1, 6] is reported as 96.2%.

With `[Cl][Ni][Cl]` [NiCl2] the “Relative activity (%)” value [1] was 57.7%.

`CC(=O)N[C@@H](Cc1ccccc1)C(=O)O` [N-acetyl-L-phenylalanine] was tested, and the “percentage … as 100%, L-enantiomer” value [2] was 0% and the “activity of the enzyme” value [2] was “inactive”.

With `[Cl-].[Cl-].[Zn+2]` [ZnCl2] the “Relative activity (%)” value [1] was 26.2%.

`O=S(=O)([O-])[O-].[Cu+2]` [CuSO4] was tested, and the “Relative activity (%)” value [1, 6] was 20.4%.

Penicillin was tested, and the “percentage … as 100%, D-enantiomer” value [2] was 0%.

For `O=S(=O)([O-])[O-].[Zn+2]` [ZnSO4], the “Relative activity (%)” value [1, 6] was 11.6%.

With `[Cu+2]` [Cu^2+] the “effect on the enzyme (in words)” value [1] was “inhibited”.

`CSCC[C@H](NC(C)=O)C(=O)O` [N-acetyl-L-methionine] was tested, and the “percentage … as 100%, L-enantiomer” value [2] was 0% and the “activity of the enzyme” value [2] was “inactive”.

`NC(=O)CI` [Iodoacetamide] was tested, and the “Relative activity (%)” value [1] was 185% and the “effect on the enzyme (in words)” value [1] was “activated”.

With `CC(=O)N[C@H](C(=O)O)C(C)C` [N-acetyl-L-valine] the “percentage … as 100%, L-enantiomer” value [2] was 0% and the “activity of the enzyme” value [2] was “inactive”.

`[Cl-].[K+]` [KCl] was tested, and the “Relative activity (%)” value [1, 5] was 102%.

`O=C(CCl)N[C@H](Cc1ccccc1)C(=O)O` [N-chloroacetyl-D-phenylalanine] was tested, and the “percentage … as 100%, D-enantiomer” value [2] was 708% and the “activity of the enzyme” value [2] was “especially active”.

For `CC(=O)N[C@H](CC(=O)O)C(=O)O` [N-Acetyl-D-aspartic acid], the “amount of D-amino acids produced from the corresponding N-acetyl-D-amino acids” value [3] was 0.66 mM and the “amount of D-amino acids produced from the corresponding N-acetyl-D-amino acids” value [4] was 1.10 mM.

In the case of `O=S(=O)(F)Cc1ccccc1` [PMSF, phenyl methyl sulfonyl fluoride], the “Relative activity (%)” value [1] is reported as 94.2%.

`[Ca+2].[Cl-].[Cl-]` [CaCl2] was tested, and the “Relative activity (%)” value [1, 5] was 104%.

`CC(=O)N[C@@H](Cc1c[nH]c2ccccc12)C(=O)O` [N-acetyl-L-tryptophan] was tested, and the “percentage … as 100%, L-enantiomer” value [2] was 0% and the “activity of the enzyme” value [2] was “inactive”.

For `[Cl-].[Cl-].[Co+2]` [CoCl2], the “Relative activity (%)” value [1] was 63.1%.

In the case of `CCN1C(=O)C=CC1=O` [N-ethylmaleimide], the “Relative activity (%)” value [1, 6] is reported as 15.2%.

With `O=C(O)c1cc[c]([Hg][Cl])cc1` [P-Chloromercuribenzoic acid] the “Relative activity (%)” value ([1]; compound 0.5 mM, kept at 40° C. for 30 min, residual activity, no addition = 100) was 99.6%.

In the case of `[Co+2]` [Co^2+], the “effect on the enzyme (in words)” value [1] is reported as “inhibited”.

For `O=C(O)CN(CCN(CC(=O)O)CC(=O)O)CC(=O)O` [EDTA], the “Relative activity (%)” value [1, 6] was 96.0% and the “effect on the enzyme (in words)” value [1] was “not being inhibited”.

With `O=C(O)CN(CCOCCOCCN(CC(=O)O)CC(=O)O)CC(=O)O` [EGTA] the “Relative activity (%)” value [1, 6] was 90.9%.

`c1cnc2c(c1)ccc1cccnc12` [o-Phenanthroline] was tested, and the “Relative activity (%)” value [1, 6] was 78.8%.

For `CC[C@@H](C)[C@@H](NC(C)=O)C(=O)O` [N-acetyl-D-isoleucine], the “percentage … as 100%, D-enantiomer” value [2] was 0%.

For `[Zn+2]` [Zn^2+], the “effect on the enzyme (in words)” value [1] was “inhibited”.

In the case of `CC(=O)N1CCC[C@@H]1C(=O)O` [N-acetyl-D-proline], the “percentage … as 100%, D-enantiomer” value [2] is reported as 0%.

In the case of `[Hg+2]` [Hg^2+], the “effect on the enzyme (in words)” value [1] is reported as “inhibited”.

`[Cl][Hg][Cl]` [HgCl2] was tested, and the “Relative activity (%)” value [1] was 13.4%.
